Source: patent publication US20230286973A1, “PROTEIN SECRETION INHIBITORS” (KEZAR LIFE SCIENCES, priority 2020, published 2023)
Like-named read-outs stand apart in the source and are kept apart here.

Experiments:
[1] = Liver Microsome Stability Assay (monkey); conditions: monkey liver microsomes, with NADPH, 1.0 uM compound
Description: (§1) Stability of a compound was assessed in the presence of liver microsomes from various sources—mouse, rat, monkey and human liver microsomes. 1.0 uM compound, 0.4% DMSO in 0.1 M Potassium Phosphate with 1.0 mg/mL liver microsomes, were incubated at 37° C. with or without 1 mM NADPH. The samples were quenched at 0, and 30 minutes.

[2] = Liver Microsome Stability Assay (mouse); conditions: mouse liver microsomes, with NADPH, 1.0 uM compound
Description: as §1

[3] = system: multiple myeloma cell line U266B1; experiment: U266 Cell Viability Assay; format: cell-based, human; conditions: Homo sapiens, U-266, 48 h, U266B1 cells, Celltiter-Glo
Outline: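 Steps: culture in RPMI 1640 plus 10% FBS and 2 mM glutamine; plate and add compound dilutions; incubate 48 hours at 37° C., 5% CO2; add CellTiter-Glo and quantify luciferase signal.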

[4] = system: multiple myeloma cell line NCI-H929; experiment: H929 Cell Viability Assay; format: cell-based, human; conditions: Homo sapiens, NCI-H929, 48 h, NCI-H929 cells, Celltiter-Glo
Outline: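 Luminescent ATP detection (CellTiter-Glo) after 48 hours of compound exposure measures viability. Cells were plated in RPMI 1640 containing 10% fetal bovine serum and kept at 37° C under 5% CO2.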

[5] = system: TNFα-FL/Gaussia Luciferase; experiment: Dox Induced TNFα-FL-Gluc Assay; format: cell-based; conditions: for IC50: 24 hr Dox induction, 293FRT/TO cells, read-out: 24 hr Dox Inducible TNFaFLGluc 293FRT/TO: Mean IC50; for 24 hr Dox Inducible TNFaFLGluc 293FRT/TO: TNF/PD1: ratio of TNFaFLGluc IC50 to PD1ssGluc IC50
Outline: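 Stereoisomer mixtures were tested where stereochemistry is not drawn. Induction used doxycycline added together with compound dilutions in DMSO/media to Flp-In 293 T-REx cells carrying a T-REx-regulated TNFα (aa 1-233)-Gaussia luciferase construct, then incubated at 37 °C, 5% CO2.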

[6] = system: PD1-ss+10aa/Gaussia Luciferase; experiment: Dox-Induced PD1-ss-Gluc Assay; format: cell-based; conditions: 24 hr Dox induction, 293FRT/TO cells, read-out: 24 hr Dox Inducible PD1ssGluc 293FRT/TO: Mean IC50
Outline: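 Gaussia luciferase fused downstream of the PD1 signal peptide plus 10 residues was expressed on doxycycline induction in stably transfected Flp-In 293 T-REx cells. Compounds were added with doxycycline and incubated at 37 °C, 5% CO2.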

[7] = Liver Microsome Stability Assay (rat); conditions: rat liver microsomes, with NADPH, 1.0 uM compound
Description: as §1

[8] = system: HER3-ss+4aa/Gaussia Luciferase; experiment: Dox-Induced Her3-ss-Gluc Assay; format: cell-based; conditions: 24 hr Dox induction, 293FRT/TO cells, read-out: 24 hr Dox Inducible Her3(ss + 4)Gluc 293FRT/TO: Mean IC50
Outline: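 Cells were seeded a day ahead, then given compound diluted in DMSO/media with doxycycline to induce expression of the HER3 signal sequence (+4 aa)–Gaussia luciferase fusion. Incubation was at 37° C., 5% CO2, in a stable Flp-In 293 T-REx line.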

[9] = system: IL-2-FL/Gaussia Luciferase; experiment: Dox Induced IL2-FL-Gluc Assay; format: cell-based; conditions: for IC50: 24 hr Dox induction, 293FRT/TO cells, read-out: 24 hr Dox Inducible IL2FLGluc 293FRT/TO: Mean IC50; for 24 hr Dox Inducible IL2FLGluc 293FRT/TO: IL2/PD1: ratio of IL2FLGluc IC50 to PD1ssGluc IC50
Outline: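 Cells are plated one day ahead, then receive compound dilutions in DMSO/media with doxycycline and incubate at 37° C, 5% CO2. They are Flp-In 293 T-REx cells expressing a full-length IL-2 (amino acids 1-153)–Gaussia luciferase fusion under T-REx control.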

[10] = Liver Microsome Stability Assay (human); conditions: human liver microsomes, with NADPH, 1.0 uM compound
Description: as §1

[11] = '<=>' given where both are I.A.

| SMILES | Liver Microsome Stability (Multiple Species): Monkey - % Remaining after 30 min w/NADPH [1] | Liver Microsome Stability (Multiple Species): Mouse - % Remaining after 30 min w/NADPH [2] | EC50 [3] | EC50 [4] | IC50 ([5]; mean) | 24 hr Dox Inducible TNFaFLGluc 293FRT/TO: TNF/PD1 [5, 11] | IC50 ([6]; mean) | Liver Microsome Stability (Multiple Species): Rat - % Remaining after 30 min w/NADPH [7] | IC50 ([8]; mean) | IC50 ([9]; mean) | 24 hr Dox Inducible IL2FLGluc 293FRT/TO: IL2/PD1 [9, 11] | Liver Microsome Stability (Multiple Species): Human - % Remaining after 30 min w/NADPH [10] | IC50 [5] | 24 hr Dox Inducible TNFaFLGluc 293FRT/TO: TNF/PD1 [5] | IC50 [6] | IC50 [8] | IC50 [9] | 24 hr Dox Inducible IL2FLGluc 293FRT/TO: IL2/PD1 [9] |
| --- | --- | --- | --- | --- | --- | --- | --- | --- | --- | --- | --- | --- | --- | --- | --- | --- | --- | --- |
| CC(=O)NCc1ccc(N2CCC[C@@H]2c2csc(NC(=O)c3cccn3CC3CCOCC3)n2)cc1 [Compound C104, (R)-N-(4-(1-(4-(acetamidomethyl)phenyl)pyrrolidin-2-yl)thiazol-2-yl)-1-((tetrahydro-2H-pyran-4-yl)methyl)-1H-pyrrole-2-carboxamide] | 0.09% | 4.94% | > 25 µM | 6.16 µM | 2.41 µM | 16.8 | 0.143 µM | 0.82% | 0.35 µM | 0.413 µM | 2.9 | 3.01% | – | – | – | – | – | – |
| CCc1cc(/C=C/c2csc(NC(=O)c3cccn3Cc3ccnc(F)c3)n2)no1 [Compound B89, (E)-N-(4-(2-(5-ethylisoxazol-3-yl)vinyl)thiazol-2-yl)-1-((2-fluoropyridin-4-yl)methyl)-1H-pyrrole-2-carboxamide] | 0.17% | 2.24% | > 25 µM | > 25 µM | – | – | – | 1.11% | – | – | – | 0.4% | > 25 µM | >92.2 | 0.271 µM | 1.1 µM | 1.65 µM | 6.1 |
| O=C(Nc1nc([C@@H]2CCCN2c2ccc(C(F)(F)F)cc2)cs1)c1cccn1Cc1ccnc(F)c1 [Compound A142, (S)-1-((2-fluoropyridin-4-yl)methyl)-N-(4-(1-(4-(trifluoromethyl)phenyl)pyrrolidin-2-yl)thiazol-2-yl)-1H-pyrrole-2-carboxamide] | 29.6% | 60.5% | > 25 µM | 16.3 µM | – | – | – | 59.4% | – | – | – | 20.9% | 6.87 µM | 21.3 | 0.323 µM | 0.66 µM | 0.963 µM | 3 |
| CNC(=O)N1CC(Oc2ccc(N3CCC[C@@H]3c3csc(NC(=O)c4cccn4Cc4ccnc(F)c4)n3)cc2)C1 [Compound A125, (R)-1-((2-fluoropyridin-4-yl)methyl)-N-(4-(1-(4-((1-(methylcarbamoyl)azetidin-3-yl)oxy)phenyl)pyrrolidin-2-yl)thiazol-2-yl)-1H-pyrrole-2-carboxamide] | 10.1% | 45.1% | > 25 µM | 1.21 µM | – | – | – | 24.9% | – | – | – | 26.2% | 0.322 µM | 14.3 | 0.0225 µM | 0.0286 µM | 0.065 µM | 2.9 |
| O=C(Nc1nc([C@@H]2CCCN(c3ccccn3)C2)cs1)c1cccn1Cc1ccncc1 [Compound E47, (R)-N-(4-(1-(pyridin-2-yl)piperidin-3-yl)thiazol-2-yl)-1-(pyridin-4-ylmethyl)-1H-pyrrole-2-carboxamide] | 5.23% | 0.55% | 13.9 µM | 10.4 µM | 4.06 µM | 7.43 | 0.547 µM | 2.13% | 1.43 µM | 1.44 µM | 2.6 | 0.57% | – | – | – | – | – | – |
| O=C(Nc1nc(/C=C/c2ncoc2C2CCCCC2)cs1)c1cccn1CC1CCOCC1 [Compound D4, (E)-N-(4-(2-(5-cyclohexyloxazol-4-yl)vinyl)thiazol-2-yl)-1-((tetrahydro-2H-pyran-4-yl)methyl)-1H-pyrrole-2-carboxamide] | 1.35% | 29.8% | > 25 µM | > 25 µM | > 25 µM | >24.1 | 1.04 µM | 1.86% | 10.6 µM | > 25 µM | >24 | 5.39% | – | – | – | – | – | – |
| O=C(NC1=NC(CCc2ccccc2)CS1)c1cccn1Cc1ccncc1 (stereo not drawn) [Compound E50] | 0.08% | 0.23% | > 25 µM | > 25 µM | > 25 µM | >12.8 | 1.96 µM | 0.64% | 4.37 µM | 5.56 µM | 2.8 | 0.06% | – | – | – | – | – | – |
| CC(=O)Nc1ccc(N2CCC[C@@H]2c2csc(NC(=O)c3cccn3Cc3ccncc3)n2)cc1 [Compound A46, (R)-N-(4-(1-(4-acetamidophenyl)pyrrolidin-2-yl)thiazol-2-yl)-1-(pyridin-4-ylmethyl)-1H-pyrrole-2-carboxamide] | 2.39% | 4.16% | > 25 µM | 0.079 µM | – | – | – | 9.73% | – | – | – | 3.12% | 0.052 µM | 17.3 | 0.003 µM | 0.00651 µM | 0.00411 µM | 1.4 |
| O=C(Nc1nc([C@H]2CCCN2c2ccc([N+](=O)[O-])cc2)cs1)c1cccn1Cc1ccncc1 [Compound A27, (R)-N-(4-(1-(4-nitrophenyl)pyrrolidin-2-yl)thiazol-2-yl)-1-(pyridin-4-ylmethyl)-1H-pyrrole-2-carboxamide] | 0.51% | 6.54% | > 25 µM | 5.79 µM | – | – | – | 0.33% | – | – | – | 1.61% | 1.1 µM | 19.1 | 0.0579 µM | 0.109 µM | 0.144 µM | 2.5 |
